Test results as given in ChEMBL document CHEMBL1201862, “PubChem BioAssay data set” (2004).
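Results reflect a 48-hour exposure of cells in 96-well plates to compound at five concentrations. GI50 marks 50% less growth.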 Calls of active or inactive are those of the source. No stated cut-off is given here; in the data, active = GI50 up to about 1.1 µM and inactive = higher.

Key:
Test in all cases: growth of human tumour cells (NCI), 48 h
786-0 = system: 786-0
A498 = system: A498
A549 = system: A549
ACHN = system: ACHN
BT-549 = system: BT-549
CAKI-1 = system: CAKI-1
CCRF-CEM = system: CCRF-CEM
COLO 205 = system: COLO 205
DU-145 = system: DU-145
EKVX = system: EKVX
HCC 2998 = system: HCC 2998
HCT-116 = system: HCT-116
HCT-15 = system: HCT-15
HL-60 = system: HL-60
HOP-62 = system: HOP-62
HOP-92 = system: HOP-92
HT-29 = system: HT-29
Hs-578T = system: Hs-578T
K562 = system: K562
KM12 = system: KM12
LOX IMVI = system: LOX IMVI
MCF7 = system: MCF7
MDA-MB-231 = system: MDA-MB-231
MDA-MB-435 = system: MDA-MB-435
MDA-N = system: MDA-N
MOLT-4 = system: MOLT-4
Malme-3M = system: Malme-3M
NCI-H226 = system: NCI-H226
NCI-H23 = system: NCI-H23
NCI-H460 = system: NCI-H460
NCI-H522 = system: NCI-H522
NCI/ADR-RES = system: NCI/ADR-RES
OVCAR-3 = system: OVCAR-3
OVCAR-4 = system: OVCAR-4
OVCAR-5 = system: OVCAR-5
OVCAR-8 = system: OVCAR-8
PC-3 = system: PC-3
RPMI-8226 = system: RPMI-8226
RXF 393 = system: RXF 393
SF-268 = system: SF-268
SF-295 = system: SF-295
SF-539 = system: SF-539
SK-MEL-28 = system: SK-MEL-28
SK-MEL-5 = system: SK-MEL-5
SK-OV-3 = system: SK-OV-3
SN12C = system: SN12C
SNB-75 = system: SNB-75
SR = system: SR
SW-620 = system: SW-620
T47D = system: T47D
U-251 = system: U-251
UACC-257 = system: UACC-257
UACC-62 = system: UACC-62
UO-31 = system: UO-31
IGROV-1 = system: IGROV-1
M14 = system: M14
SK-MEL-2 = system: SK-MEL-2
SNB-19 = system: SNB-19
TK-10 = system: TK-10

SMILES: Cc1sc2nc3n(c(=O)c2c1C)N=C(c1ccc(Cl)cc1)CS3
- GI50 (786-0): > 100 µM (inactive)
- GI50 (A498): > 100 µM (inactive)
- GI50 (A549): > 100 µM (inactive)
- GI50 (ACHN): > 100 µM (inactive)
- GI50 (BT-549): 31.6 µM (inactive)
- GI50 (CAKI-1): > 100 µM (inactive)
- GI50 (CCRF-CEM): > 100 µM (inactive)
- GI50 (COLO 205): > 100 µM (inactive)
- GI50 (DU-145): > 100 µM (inactive)
- GI50 (EKVX): > 100 µM (inactive)
- GI50 (HCC 2998): > 100 µM (inactive)
- GI50 (HCT-116): > 100 µM (inactive)
- GI50 (HCT-15): > 100 µM
- GI50 (HL-60): > 100 µM (inactive)
- GI50 (HOP-62): 66.1 µM (inactive)
- GI50 (HOP-92): > 100 µM (inactive)
- GI50 (HT-29): > 100 µM (inactive)
- GI50 (Hs-578T): 82.6 µM (inactive)
- GI50 (K562): > 100 µM (inactive)
- GI50 (KM12): > 100 µM (inactive)
- GI50 (LOX IMVI): > 100 µM (inactive)
- GI50 (MCF7): > 100 µM (inactive)
- GI50 (MDA-MB-231): > 100 µM (inactive)
- GI50 (MDA-MB-435): > 100 µM (inactive)
- GI50 (MDA-N): > 100 µM (inactive)
- GI50 (MOLT-4): > 100 µM (inactive)
- GI50 (Malme-3M): > 100 µM (inactive)
- GI50 (NCI-H226): > 100 µM (inactive)
- GI50 (NCI-H23): > 100 µM (inactive)
- GI50 (NCI-H460): > 100 µM (inactive)
- GI50 (NCI-H522): > 100 µM (inactive)
- GI50 (NCI/ADR-RES): > 100 µM (inactive)
- GI50 (OVCAR-3): > 100 µM (inactive)
- GI50 (OVCAR-4): > 100 µM (inactive)
- GI50 (OVCAR-5): > 100 µM (inactive)
- GI50 (OVCAR-8): > 100 µM (inactive)
- GI50 (PC-3): > 100 µM (inactive)
- GI50 (RPMI-8226): > 100 µM (inactive)
- GI50 (RXF 393): > 100 µM (inactive)
- GI50 (SF-268): > 100 µM (inactive)
- GI50 (SF-295): > 100 µM (inactive)
- GI50 (SF-539): > 100 µM (inactive)
- GI50 (SK-MEL-28): > 100 µM (inactive)
- GI50 (SK-MEL-5): > 100 µM (inactive)
- GI50 (SK-OV-3): > 100 µM (inactive)
- GI50 (SN12C): > 100 µM (inactive)
- GI50 (SNB-75): 48.2 µM (inactive)
- GI50 (SR): > 100 µM (inactive)
- GI50 (SW-620): > 100 µM (inactive)
- GI50 (T47D): > 100 µM (inactive)
- GI50 (U-251): > 100 µM (inactive)
- GI50 (UACC-257): > 100 µM (inactive)
- GI50 (UACC-62): > 100 µM (inactive)
- GI50 (UO-31): > 100 µM (inactive)

SMILES: O=c1oc2c(Br)c(O)c(Br)cc2c2ccccc12
- GI50 (786-0): 42.1 µM (inactive)
- GI50 (A498): 25.8 µM (inactive)
- GI50 (A549): 32.5 µM (inactive)
- GI50 (ACHN): 30.8 µM (inactive)
- GI50 (BT-549): 29 µM (inactive)
- GI50 (CAKI-1): 16 µM (inactive)
- GI50 (CCRF-CEM): 25.6 µM (inactive)
- GI50 (COLO 205): 29.9 µM (inactive)
- GI50 (DU-145): 29.3 µM (inactive)
- GI50 (EKVX): 23.2 µM (inactive)
- GI50 (HCC 2998): 33.3 µM (inactive)
- GI50 (HCT-116): 29.4 µM (inactive)
- GI50 (HCT-15): 19.2 µM
- GI50 (HL-60): 23 µM (inactive)
- GI50 (HOP-62): 30.5 µM (inactive)
- GI50 (HOP-92): 22.5 µM (inactive)
- GI50 (HT-29): 30 µM (inactive)
- GI50 (Hs-578T): 20.7 µM (inactive)
- GI50 (IGROV-1): 30.6 µM (inactive)
- GI50 (K562): 23.1 µM (inactive)
- GI50 (LOX IMVI): 23.8 µM (inactive)
- GI50 (M14): 31.9 µM (inactive)
- GI50 (MCF7): 16.3 µM (inactive)
- GI50 (MDA-MB-231): 16.9 µM (inactive)
- GI50 (MDA-MB-435): 36.6 µM (inactive)
- GI50 (MDA-N): 31.5 µM (inactive)
- GI50 (MOLT-4): 27.4 µM (inactive)
- GI50 (Malme-3M): 26.5 µM (inactive)
- GI50 (NCI-H226): 27.1 µM (inactive)
- GI50 (NCI-H23): 15.6 µM (inactive)
- GI50 (NCI-H460): 24 µM (inactive)
- GI50 (NCI-H522): 15.8 µM (inactive)
- GI50 (NCI/ADR-RES): 12.2 µM (inactive)
- GI50 (OVCAR-3): 16.5 µM (inactive)
- GI50 (OVCAR-4): 29.7 µM (inactive)
- GI50 (OVCAR-5): 35 µM (inactive)
- GI50 (OVCAR-8): 33.6 µM (inactive)
- GI50 (PC-3): 21 µM (inactive)
- GI50 (RPMI-8226): 27 µM (inactive)
- GI50 (RXF 393): 38.6 µM (inactive)
- GI50 (SF-268): 20.8 µM (inactive)
- GI50 (SF-295): 34 µM (inactive)
- GI50 (SF-539): 23.9 µM (inactive)
- GI50 (SK-MEL-28): 35.3 µM (inactive)
- GI50 (SK-MEL-2): 28.2 µM (inactive)
- GI50 (SK-MEL-5): 24.5 µM (inactive)
- GI50 (SN12C): 26.5 µM (inactive)
- GI50 (SNB-19): 30.3 µM (inactive)
- GI50 (SNB-75): 32 µM (inactive)
- GI50 (SR): 23.2 µM (inactive)
- GI50 (SW-620): 36.6 µM (inactive)
- GI50 (T47D): 25 µM (inactive)
- GI50 (TK-10): 34.9 µM (inactive)
- GI50 (U-251): 32.1 µM (inactive)
- GI50 (UACC-257): 18 µM (inactive)
- GI50 (UACC-62): 20.1 µM (inactive)

SMILES: CC(=O)OC12CC(C)C3(O)C4C=C(C)C(=O)[C@@]4(O)CC(CO)=C[C@H]3C1C2(C)C (stereo partly drawn)
- GI50 (786-0): > 10 µM (inactive)
- GI50 (A498): 0.41 µM (active)
- GI50 (A549): 2.38 µM (inactive)
- GI50 (ACHN): > 10 µM (inactive)
- GI50 (BT-549): > 10 µM (inactive)
- GI50 (CAKI-1): 4.7 µM (inactive)
- GI50 (CCRF-CEM): > 1000 µM (inactive)
- GI50 (COLO 205): 1.88 µM (inactive)
- GI50 (DU-145): > 10 µM (inactive)
- GI50 (EKVX): > 10 µM (inactive)
- GI50 (HCC 2998): 4.21 µM (inactive)
- GI50 (HCT-116): > 10 µM (inactive)
- GI50 (HCT-15): > 10 µM
- GI50 (HL-60): 0.887 µM (active)
- GI50 (HOP-62): > 100 µM (inactive)
- GI50 (HOP-92): 65.8 µM (inactive)
- GI50 (HT-29): > 10 µM (inactive)
- GI50 (Hs-578T): 0.82 µM (active)
- GI50 (IGROV-1): > 10 µM (inactive)
- GI50 (K562): 0.494 µM (active)
- GI50 (KM12): > 10 µM (inactive)
- GI50 (LOX IMVI): > 10 µM (inactive)
- GI50 (M14): > 10 µM (inactive)
- GI50 (MCF7): > 10 µM (inactive)
- GI50 (MDA-MB-231): > 10 µM (inactive)
- GI50 (MDA-MB-435): 3.67 µM (inactive)
- GI50 (MDA-N): 2.69 µM (inactive)
- GI50 (MOLT-4): > 1000 µM (inactive)
- GI50 (Malme-3M): > 10 µM (inactive)
- GI50 (NCI-H226): > 10 µM (inactive)
- GI50 (NCI-H23): > 10 µM (inactive)
- GI50 (NCI-H460): > 100 µM (inactive)
- GI50 (NCI-H522): > 10 µM (inactive)
- GI50 (NCI/ADR-RES): > 10 µM (inactive)
- GI50 (OVCAR-3): > 10 µM (inactive)
- GI50 (OVCAR-4): > 10 µM (inactive)
- GI50 (OVCAR-5): > 10 µM (inactive)
- GI50 (OVCAR-8): > 10 µM (inactive)
- GI50 (PC-3): > 1000 µM (inactive)
- GI50 (RPMI-8226): > 10 µM (inactive)
- GI50 (RXF 393): > 100 µM (inactive)
- GI50 (SF-268): > 10 µM (inactive)
- GI50 (SF-539): > 10 µM (inactive)
- GI50 (SK-MEL-28): > 10 µM (inactive)
- GI50 (SK-MEL-2): > 10 µM (inactive)
- GI50 (SK-MEL-5): 5.2 µM (inactive)
- GI50 (SK-OV-3): 794 µM (inactive)
- GI50 (SN12C): > 100 µM (inactive)
- GI50 (SNB-19): > 10 µM (inactive)
- GI50 (SNB-75): > 10 µM (inactive)
- GI50 (SR): > 10 µM (inactive)
- GI50 (SW-620): 5.73 µM (inactive)
- GI50 (T47D): > 100 µM (inactive)
- GI50 (TK-10): 2.34 µM (inactive)
- GI50 (U-251): > 10 µM (inactive)
- GI50 (UACC-257): > 10 µM (inactive)
- GI50 (UACC-62): 771 µM (inactive)
- GI50 (UO-31): > 10 µM (inactive)
